# Like-named read-outs stand apart in the source and are kept apart here.
# Tests used:
# [1] = test system: Staphylococcus aureus ATCC 29213; experiment: antibacterial MIC, microtitration broth method; format: cell-based; details: 37 °C
# Protocol: (§1) Prior to the testing, each strain was transferred into a nutrient agar (Oxoid Limited, Basingstoke, UK), which was enriched with 5% defibrinated bovine blood.
# (§2) The MICs were determined by the microtitration broth method in the cation-adjusted Mueller-Hinton broth (Becton Dickinson, Oxford, UK) according to an international interdisciplinary Clinical Laboratory Standard Institute guidelines.
# (§3) The checkerboard was inoculated by the bacterial inocula, which were prepared in a phosphate buffered saline solution with the pH = 7.2–7.3 to simulate physiological pH. The final concentration of each inoculum in the final volume of 100 μL in the wells was approximately 7.5 × 10^6 CFU/mL. Drug-free controls, sterility controls and the controls consisted of the broth with DMSO were included. The determination of the results was performed visually after 24 h of static incubation in the darkness at 37 °C in an aerobic atmosphere.
# (§4) To ensure reproducibility, each antibacterial MIC assay was performed triplicate on separate occasions.
# [2] = test system: methicillin-resistant Staphylococcus aureus 63718; experiment: antibacterial MIC, microtitration broth method; format: cell-based; details: MRSA, 37 °C
# Protocol: as §1, §2, §3, §4
# [3] = test system: Enterococcus faecalis ATCC 29212; experiment: antibacterial MIC, microtitration broth method; format: cell-based; details: 37 °C
# Protocol: as §1, §2, §3, §4
# [4] = test system: Escherichia coli ATCC 25922; experiment: antibacterial MIC, microtitration broth method; format: cell-based; details: 37 °C
# Protocol: as §1, §2, §3, §4
# [5] = test system: Candida albicans CCM 8261; experiment: candidacidal MIC, microdilution method; format: cell-based; details: 48 h, 37 °C
# Protocol: (§5) In order to provide a look into the potential usefulness of the derivatives 5a–l as the candidates for a development of anti-yeast (candidacidal) agents, they were in vitro tested against Candida albicans CCM 8261 (CA 8261), C. krusei CCM 8271 (CK 8271) and C. parapsilosis CCM 8260 (CP 8260). The yeasts were obtained from the Czech Collection of Microorganisms (Masaryk University, Faculty of Science, Brno, Czech Republic). They were grown and kept on Sabouraud agar (Oxoid Limited, Basingstoke, UK).
# (§6) For the screening, the microdilution method according to the Antimicrobial Susceptibility Testing Protocols was applied. The inoculum was prepared from the cultures grown on Sabouraud agar. With the sterile solution of NaCl, the inoculum was prepared to the 0.5 McFarland units using the Densi-La-Meter densitometer (LIAP, Riga, Latvia) and diluted a thousand‑fold with the Roswell Park Memorial Institute (RPMI) 1640 medium (Sigma-Aldrich, Darmstadt, Germany). Prepared suspension was used for an inoculation of microtitre plates. Final concentration in wells ranged from 5.0 × 10^2 CFU/mL to 2.5 × 10^3 CFU/mL. […] For the determination of the MICs, the stock solutions of all the tested compounds were diluted in the microtitre checkerboard to the final concentration varying from 128 μg/mL to 0.125 μg/mL. Drug-free control, sterility control and the control consisted of a medium and DMSO alone were included. Inoculated microtitre plates were incubated for 48 h in the darkness at 37 °C in an aerobic atmosphere. The results were estimated against static light.
# (§7) The MIC was defined as the lowest concentration of the tested compound at which no visible growth was observed. To ensure reproducibility of the results, each candidacidal MIC assay was performed triplicate on separate occasions. It was important to note that all the MICs from the in vitro antimicrobial screening were expressed in μg/mL units and were available in Tables S3 and S4 (Supplementary Materials).
# [6] = test system: Candida parapsilosis CCM 8260; experiment: candidacidal MIC, microdilution method; format: cell-based; details: 48 h, 37 °C
# Protocol: as §5, §6, §7
# Candida krusei CCM 8271 = experiment: candidacidal MIC, microdilution method; format: cell-based; details: 48 h, 37 °C
# Protocol: as §5, §6, §7
# M. smegmatis ATCC 700084 = experiment: antimycobacterial MIC, broth dilution micromethod; format: cell-based; details: Mycolicibacterium smegmatis, ATCC700084, 72 h, 3 days at 37 °C
# [7] = set-up: method as in PMID 16209439, PMID 16209439, doi:10.2478/s11696-006-0007-y; details: octan-1-ol/phosphate buffer (pH = 7.4); cited from earlier work
# M. kansasii DSM 44162 = experiment: antimycobacterial MIC, broth dilution micromethod; format: cell-based; details: Mycobacterium kansasii, DSM44162, 168 h, 7 days at 37 °C
# M. marinum CAMP 5644 = experiment: antimycobacterial MIC, broth dilution micromethod; format: cell-based; details: Mycobacterium marinum, CAMP5644, 504 h, 21 days at 28 °C
# [8] = set-up: method as in PMID 16209439, PMID 16209439; details: potentiometric titration; cited from earlier work
# [9] = test system: Mycobacterium avium subsp. paratuberculosis CIT03; experiment: antimycobacterial MIC, MB broth, alamarBlue; format: cell-based; details: 264 h, read-out: MIC MAP
# Protocol: The Mycobacterium avium subsp. paratuberculosis CIT03 strain was grown in the Middlebrook (MB) broth, supplemented with the Oleic-Albumin-Dextrose-Catalase Supplement (OADC, Becton Dickinson, Oxford, UK) and the mycobactin J (2 μg/mL). The commercially available siderophore mycobactin J reduced the incubation period of M. avium subsp. paratuberculosis in a complex medium when compared to the medium containing the mycobactin P as a growth factor.
# The identification of the isolate was performed using biochemical and molecular protocols. At a log phase growth, a culture sample (10 mL) was centrifuged at 15,000 rpm/20 min using a bench top centrifuge (Model CR 4-12, Jouan Inc., London, UK). Following removal of the supernatant, the pellet was washed in fresh Middlebrook 7H9GC broth and re-suspended in fresh supplemented MB broth (10 mL). The turbidity was adjusted to match the McFarland standard No. 1 containing approximately 3.0 × 10^8 Colony Forming Units (CFU) with the MB broth. Further 1:20 dilution of the culture was performed in the MB broth. The susceptibility of given mycobacterial species was investigated in a 96-well plate format. In those experiments, sterile deionised water (300 μL) was added to all outer-perimeter wells of the plates to minimize an evaporation of the medium in the test wells during the incubation process. Each evaluated compound (100 μL) was incubated with the mycobacterial species (100 μL). The dilutions of a particular compound were prepared in triplicate. For all inspected derivatives, final concentrations ranged from 1000 μg/mL to 60 μg/mL. All compounds were prepared in dimethyl sulfoxide (DMSO; Sigma-Aldrich, Irvine, UK) and subsequent dilutions were made in the supplemented MB broth. The plates were sealed with a parafilm and incubated at 37 °C for 11 days. Following the incubation, a 10% addition of a water‑soluble dye, the alamarBlue reagent (AbD Serotec, Kidlington, UK), was mixed into each well. Absorbance readings at 570 nm and 600 nm were taken, initially for background subtraction and after 24 h re-incubation. The subtraction is necessary for strongly coloured compounds, where the colour may interfere with the interpretation of any colour change. For non-interfering compounds, a blue colour in a well was interpreted as an absence of a growth and a pink colour was scored as a growth.
# The minimum inhibitory concentration (MIC) was defined as the lowest concentration of the compound at which no visible bacterial growth was observed. In other words, the MIC was the lowest concentration that prevented a visual colour change from blue to pink. The MIC value has been routinely and widely used in bacterial assays and it has been a standard detection limit according to the Clinical and Laboratory Standards Institute. The clinically used antimycobacterial drugs INH and RIF were applied as the standards.
# [10] = Lodderomyces parapsilosis, CCM8260
# [11] = Candida albicans, CCM8261, Table S4
# [12] = Lodderomyces parapsilosis, CCM8260, Table S4
# [13] = Pichia kudriavzevii, CCM8271, Table S4
Structure (SMILES),"MIC ([1]; ATCC29213, 24 h)","MIC ([1]; ATCC29213, Table S4, 24 h)",MIC ([2]; 24 h),"MIC ([2]; Table S4, 24 h)","MIC ([3]; ATCC29212, 24 h)","MIC ([3]; ATCC29212, Table S4, 24 h)","MIC ([4]; ATCC25922, 24 h)","MIC ([4]; ATCC25922, Table S4, 24 h)","MIC ([5]; Candida albicans, CCM8261)","MIC [6, 10]","MIC (Candida krusei CCM 8271; Pichia kudriavzevii, CCM8271)",MIC (M. smegmatis ATCC 700084),MIC (M. smegmatis ATCC 700084; Table S3),MIC (M. kansasii DSM 44162),MIC (M. kansasii DSM 44162; Table S3),MIC (M. marinum CAMP 5644),MIC (M. marinum CAMP 5644; Table S3),"MIC ([9]; 37 °C, 11 days)",MIC [9],further results
"CC1(C)S[C@@H]2[C@H](NC(=O)[C@H](N)c3ccccc3)C(=O)N2[C@H]1C(=O)O [AMP, ampicillin, reference compound]",5.72 µM,2 µg/mL,> 45.8 µM,> 16 µg/mL,> 45.8 µM,> 16 µg/mL,> 45.8 µM,> 16 µg/mL,–,–,–,–,–,–,–,–,–,–,–,–
"C[C@@H]1[C@H](O)[C@@H](C)/C=C/C=C/C=C/C=C/C=C/C=C/C=C/[C@H](O[C@@H]2O[C@H](C)[C@@H](O)[C@H](N)[C@@H]2O)C[C@@H]2O[C@](O)(C[C@@H](O)C[C@@H](O)[C@H](O)CC[C@@H](O)C[C@@H](O)CC(=O)O[C@H]1C)C[C@H](O)[C@H]2C(=O)O [Amph. B, amphotericin B, reference compound]",–,–,–,–,–,–,–,–,0.54 µM,1.08 µM,0.54 µM,–,–,–,–,–,–,–,–,–
"Nc1nc(=O)[nH]cc1F [Compound 5-FC, 5-flucytosine, reference compound]",–,–,–,–,–,–,–,–,–,–,–,–,–,–,–,–,–,–,–,MIC [5]: 7.69 µM; MIC CA ([5]; Table S4): 1 µg/mL; MIC [6]: 61.50 µM; MIC CP ([6]; Table S4): 8 µg/mL; MIC (Candida krusei CCM 8271): 0.96 µM; MIC CK (Candida krusei CCM 8271; Table S4): 0.125 µg/mL
COc1ccccc1NC(=O)OCC(O)CN1CCN(c2cccc(C(F)(F)F)c2)CC1 (stereo not shown) [Compound 5a],> 523 µM,> 256 µg/mL,> 523 µM,> 256 µg/mL,> 523 µM,> 256 µg/mL,> 523 µM,> 256 µg/mL,> 261 µM,> 261 µM,> 261 µM,523 µM,256 µg/mL,131 µM,64 µg/mL,131 µM,64 µg/mL,510 µM,250 µg/mL,"log Pexp [7]: 3.57; pKa [8]: 5.83; MIC [5, 11]: > 128 µg/mL; MIC [6, 12]: > 128 µg/mL; MIC (Candida krusei CCM 8271; [13]): > 128 µg/mL"
CCOc1ccccc1NC(=O)OCC(O)CN1CCN(c2cccc(C(F)(F)F)c2)CC1 (stereo not shown) [Compound 5b],> 508 µM,> 256 µg/mL,> 508 µM,> 256 µg/mL,> 508 µM,> 256 µg/mL,> 508 µM,> 256 µg/mL,> 254 µM,> 254 µM,> 254 µM,508 µM,256 µg/mL,127 µM,64 µg/mL,127 µM,64 µg/mL,1980 µM,1000 µg/mL,"log Pexp [7]: 3.60; pKa [8]: 6.00; MIC [5, 11]: > 128 µg/mL; MIC [6, 12]: > 128 µg/mL; MIC (Candida krusei CCM 8271; [13]): > 128 µg/mL"
"NNC(=O)c1ccncc1 [INH, isoniazid, reference compound]",–,–,–,–,–,–,–,–,–,–,–,117 µM,16.1 µg/mL,–,–,467 µM,64 µg/mL,1820 µM,250 µg/mL,–
"CO[C@H]1/C=C/O[C@@]2(C)Oc3c(C)c(O)c4c(O)c(c(/C=N/N5CCN(C)CC5)c(O)c4c3C2=O)NC(=O)/C(C)=C\C=C\[C@H](C)[C@H](O)[C@@H](C)[C@@H](O)[C@@H](C)[C@H](OC(C)=O)[C@@H]1C [RIF, rifampicin, reference compound]",–,–,–,–,–,–,–,–,–,–,–,19.4 µM,0.125 µg/mL,0.15 µM,0.5 µg/mL,2.43 µM,0.25 µg/mL,109 µM,60 µg/mL,–
